Patent US11691965B2, “Method for preparing pyrrolidinyl urea derivative” (ZHANGZHOU PIEN TZE HUANG PHARMACEUTICAL CO., LTD., priority 2020, dated 2023)

Assays:
[1] = In vivo pharmacokinetics study after single administration in Beagle dogs
Procedure: Experimental Example 4: In Vivo Pharmacokinetics Study after Single Administration in Beagle Dogs
Male Beagle dogs were used as the test animals, and the plasma concentrations of the compounds were determined after a single administration and the pharmacokinetic behavior was evaluated.
Beagle (male, 6 to 12 kg, more than 6 months old, Beijing Mars Biotechnology Co., Ltd.)
The purpose of the experiment was to test the pharmacokinetic characteristics of the tested compounds in non-rodents after intravenous injection and oral administration, in the experiment, the tested compounds were prepared into a clear solution or a homogeneous suspension, and the beagle dogs were given a single intravenous injection or oral administration. In the intravenous injection group, the solvent was a certain proportion of HP-β-cyclodextrin solution of dimethyl sulfoxide or a certain proportion of ethanol, and a normal saline solution of polyethylene glycol 400, vortexed and ultrasonicated to prepare a […] clear solution and filtered by microporous membrane for later use; oral solvent was a certain proportion of HP-β cyclodextrin solution of dimethyl sulfoxide or a certain proportion of sodium carboxymethyl cellulose solution, after the compound to be tested was mixed with the solvent, the solvent was vortexed and ultrasonicated to prepare a 3 mg/mL uniform suspension for later use.
(§1) C0 is the initial concentration, T1/2 is the elimination half-life, Vdss is the steady-state apparent volume of distribution, Cl is the total clearance, and AUC0-inf is area under the plasma drug concentration-time curve from 0 time to extrapolation to infinity area, Cmax is the peak concentration, and Tmax is the peak time.

CYP1A2 = CYP1A2 (Homo sapiens (Human), UniProt P05177); assay type: in vitro ADME; conditions: microsomes, 10 min
CYP1A2, sequence (P05177 whole entry, canonical isoform): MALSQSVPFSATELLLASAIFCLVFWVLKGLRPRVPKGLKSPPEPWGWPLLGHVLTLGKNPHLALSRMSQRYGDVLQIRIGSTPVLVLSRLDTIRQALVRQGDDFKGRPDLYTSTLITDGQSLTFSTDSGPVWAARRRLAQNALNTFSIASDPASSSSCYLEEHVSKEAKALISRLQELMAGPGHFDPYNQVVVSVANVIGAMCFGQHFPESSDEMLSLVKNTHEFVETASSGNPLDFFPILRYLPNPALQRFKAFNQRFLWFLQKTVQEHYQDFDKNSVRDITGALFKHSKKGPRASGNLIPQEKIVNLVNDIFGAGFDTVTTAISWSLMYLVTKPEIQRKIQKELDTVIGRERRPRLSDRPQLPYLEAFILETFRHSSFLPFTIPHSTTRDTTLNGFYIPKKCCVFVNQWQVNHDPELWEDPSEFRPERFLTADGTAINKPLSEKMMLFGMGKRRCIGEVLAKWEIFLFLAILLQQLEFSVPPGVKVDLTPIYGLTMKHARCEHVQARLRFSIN
Procedure: (§2) Experimental Example 2: Cytochrome P450 Isoenzyme Inhibitory Activity Test The inhibitory activities of test compound against different isoforms of human cytochrome P450 isoenzymes were determined. The test compound, standard inhibitor (100×final concentration) and mixed substrate working solution were prepared; the microsome frozen in −80° C. refrigerator was taken out and thawed. […]

[2] = In vivo pharmacokinetics study after single administration in rats; parameters: species or system Sprague Dawley rats
Procedure: Experimental Example 3: In Vivo Pharmacokinetics Study after Single Administration in Rats
Male SD rats were used as the test animals, and the plasma concentrations of the compound were determined after a single administration and the pharmacokinetic behavior was evaluated.
Sprague Dawley rats (male, 200 to 300 g, 7 to 9 weeks old, Shanghai Charles River Laboratory Animal Co., LTD.)
Standard protocols were used to test the pharmacokinetic characteristics of the tested compounds in rodents after intravenous injection and oral administration, in the experiment, the tested compounds were prepared into a clear solution or a homogeneous suspension, and the rats were given a single intravenous injection and oral administration. In the intravenous injection group, the solvent was a certain proportion of ethanol and normal saline solution or a certain proportion of HP-β cyclodextrin solution of dimethyl sulfoxide (the pH was adjusted 3 to 4), the mixture was vortex-stirred to prepare 1 mg/mL clear solution and filtered by a microporous membrane for later use; oral solvent was a certain proportion of sodium carboxymethyl cellulose solution or a certain proportion of HP-β cyclodextrin solution of dimethyl sulfoxide (the pH was adjusted to above 4), after the compound to be tested was mixed with the solvent, the mixture was vortex-stirred to obtain a uniform suspension of 30 mg/mL for later use.
as §1

[3] = system: human cytochrome P450 isoenzymes; assay: Cytochrome P450 isoenzyme inhibitory activity test, overall conclusion; assay type: in vitro ADME; conditions: human liver microsomes
Procedure: as §2

CYP2D6 = CYP2D6 (Homo sapiens (Human), UniProt P10635); assay: Cytochrome P450 isoenzyme inhibitory activity test (human liver microsomes); assay type: in vitro ADME; conditions: heading: Cytochrome P450 isoenzyme IC50 CYP2D6, 37° C., 10 minutes
CYP2D6, sequence (P10635 whole entry, canonical isoform): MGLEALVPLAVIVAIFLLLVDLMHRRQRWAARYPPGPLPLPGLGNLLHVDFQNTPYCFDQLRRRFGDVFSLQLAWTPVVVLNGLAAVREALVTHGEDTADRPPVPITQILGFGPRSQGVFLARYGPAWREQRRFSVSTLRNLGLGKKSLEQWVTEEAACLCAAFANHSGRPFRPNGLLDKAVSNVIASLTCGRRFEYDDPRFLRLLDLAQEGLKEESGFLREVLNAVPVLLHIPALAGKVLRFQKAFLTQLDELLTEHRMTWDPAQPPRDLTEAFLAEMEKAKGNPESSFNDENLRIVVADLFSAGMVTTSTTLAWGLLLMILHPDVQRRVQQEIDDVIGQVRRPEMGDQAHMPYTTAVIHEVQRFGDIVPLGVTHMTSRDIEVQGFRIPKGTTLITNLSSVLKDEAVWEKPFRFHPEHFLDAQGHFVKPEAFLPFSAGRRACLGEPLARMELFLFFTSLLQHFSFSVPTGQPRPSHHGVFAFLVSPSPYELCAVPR
Procedure: (§3) Experimental Example 2: Cytochrome P450 Isoenzyme Inhibitory Activity Test The inhibitory activities of test compound against different isoforms of human cytochrome P450 isoenzymes were determined. The test compound, standard inhibitor (100×final concentration) and mixed substrate working solution were prepared; the microsome frozen in −80° C. refrigerator was taken out and thawed. 2 μL of the compound to be tested and standard inhibitor solution were added to the corresponding wells, and at the same time, 2 μL of the corresponding solvent was added to the non-inhibitor control wells (NIC) and the blank control wells; secondly, 20 μL of mixed substrate solution was added to the corresponding wells except the blank wells (20 μL of Pb was added to the blank wells); human liver microsome solution was prepared (the solution was put back in the refrigerator immediately after using and marking the date), and then 158 μL of human liver microsome solution was added to all wells; the sample plate was put in a 37° C. water bath for pre-incubation, and then a coenzyme factor (NADPH) solution was prepared; after 10 minutes, 20 μL of NADPH solution was added to all wells, the sample plate was shaken well, and incubated in a 37° C. water bath for 10 minutes; at the corresponding time point, 400 μL of cold acetonitrile solution (internal standard is 200 ng/mL tolbutamide and labetalol) was added to terminate the reaction; after the plates were evenly mixed, the mixture was centrifuged at 4000 rpm for 20 minutes to precipitate protein; 200 μL of supernatant was added into 100 μL of water, shaken well and detected by LC/MS/MS.

CYP2C19 = CYP2C19 (Homo sapiens (Human), UniProt P33261); assay: as above; assay type: in vitro ADME; conditions: heading: Cytochrome P450 isoenzyme IC50 CYP2C19, 37° C., 10 minutes
CYP2C19, sequence (P33261 whole entry): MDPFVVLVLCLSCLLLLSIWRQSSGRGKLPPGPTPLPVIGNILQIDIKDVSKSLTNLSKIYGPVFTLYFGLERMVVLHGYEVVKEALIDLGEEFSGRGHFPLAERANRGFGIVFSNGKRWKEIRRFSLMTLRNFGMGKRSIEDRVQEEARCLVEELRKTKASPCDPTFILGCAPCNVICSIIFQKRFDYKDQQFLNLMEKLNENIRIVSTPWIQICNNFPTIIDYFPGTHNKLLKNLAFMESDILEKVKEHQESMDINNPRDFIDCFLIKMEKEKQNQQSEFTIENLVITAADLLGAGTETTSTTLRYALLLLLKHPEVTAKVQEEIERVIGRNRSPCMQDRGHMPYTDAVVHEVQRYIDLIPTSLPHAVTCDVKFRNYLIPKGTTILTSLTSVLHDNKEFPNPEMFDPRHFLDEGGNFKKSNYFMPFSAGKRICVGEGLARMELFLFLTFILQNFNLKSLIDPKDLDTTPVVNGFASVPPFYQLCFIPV
Procedure: as §3

CYP2C9 = CYP2C9 (Homo sapiens (Human), UniProt P11712); assay: as above; assay type: in vitro ADME; conditions: heading: Cytochrome P450 isoenzyme IC50 CYP2C9, 37° C., 10 minutes
CYP2C9, sequence (P11712 whole entry): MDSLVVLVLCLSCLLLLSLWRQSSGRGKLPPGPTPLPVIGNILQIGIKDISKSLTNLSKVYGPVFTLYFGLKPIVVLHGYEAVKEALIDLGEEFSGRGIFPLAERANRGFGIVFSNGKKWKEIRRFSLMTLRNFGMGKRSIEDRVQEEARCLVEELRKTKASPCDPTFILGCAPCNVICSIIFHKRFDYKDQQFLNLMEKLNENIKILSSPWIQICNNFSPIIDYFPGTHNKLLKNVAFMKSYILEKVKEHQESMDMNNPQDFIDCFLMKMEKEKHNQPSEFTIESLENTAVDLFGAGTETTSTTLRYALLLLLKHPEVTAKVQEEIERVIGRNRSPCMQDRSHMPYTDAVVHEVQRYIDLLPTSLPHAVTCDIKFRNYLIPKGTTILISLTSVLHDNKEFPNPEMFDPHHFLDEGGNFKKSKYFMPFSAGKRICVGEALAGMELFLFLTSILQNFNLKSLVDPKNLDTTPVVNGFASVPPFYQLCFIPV
Procedure: as §3

CYP3A4 = CYP3A4 (Homo sapiens (Human), UniProt P08684); assay: as above; assay type: in vitro ADME; conditions: heading: Cytochrome P450 isoenzyme IC50 CYP3A4, 37° C., 10 minutes
CYP3A4, sequence (P08684 whole entry): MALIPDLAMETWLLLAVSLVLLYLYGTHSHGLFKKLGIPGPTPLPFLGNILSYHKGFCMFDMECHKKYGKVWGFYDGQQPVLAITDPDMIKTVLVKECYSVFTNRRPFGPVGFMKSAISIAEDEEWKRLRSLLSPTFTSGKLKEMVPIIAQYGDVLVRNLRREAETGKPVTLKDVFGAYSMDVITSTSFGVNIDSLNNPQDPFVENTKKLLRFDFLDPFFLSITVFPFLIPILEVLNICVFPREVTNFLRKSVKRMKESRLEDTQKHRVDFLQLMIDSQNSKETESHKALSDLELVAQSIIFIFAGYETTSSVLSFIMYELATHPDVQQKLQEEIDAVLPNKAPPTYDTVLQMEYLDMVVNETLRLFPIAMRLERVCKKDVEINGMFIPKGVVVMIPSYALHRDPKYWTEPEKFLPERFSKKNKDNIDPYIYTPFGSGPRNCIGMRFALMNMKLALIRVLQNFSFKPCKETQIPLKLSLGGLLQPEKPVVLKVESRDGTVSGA
Procedure: as §3

TrkA = TrkA (Homo sapiens (Human), UniProt P04629); assay: TrkA enzyme activity test; assay type: biochemical
TrkA, sequence (P04629 440-796): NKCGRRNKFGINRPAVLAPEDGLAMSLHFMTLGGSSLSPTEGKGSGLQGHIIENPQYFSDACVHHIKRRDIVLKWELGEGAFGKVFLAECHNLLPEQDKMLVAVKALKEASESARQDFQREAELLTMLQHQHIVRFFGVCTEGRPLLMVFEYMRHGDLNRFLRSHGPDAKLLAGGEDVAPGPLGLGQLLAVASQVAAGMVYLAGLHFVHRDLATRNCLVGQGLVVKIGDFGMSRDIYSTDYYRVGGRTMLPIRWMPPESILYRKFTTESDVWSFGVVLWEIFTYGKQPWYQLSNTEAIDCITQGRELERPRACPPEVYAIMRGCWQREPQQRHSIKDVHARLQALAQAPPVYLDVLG
Procedure: Experimental Example 1: TrkA Enzyme Activity Test
TK detection kit Cisbio-62TK0PEJ
Detection plate PerkinElmer-6007299
Envision PerkinElmer-2104
20 mM Hepes (pH 7.5), 10 mM MgCl2 (magnesium chloride), 1 mM EGTA, 0.01% Brij35, 0.1 mM Orthovanadate (sodium vanadate), 0.02 g/mL BSA (bovine serum protein), 2 mM DTT (dithiothreitol), 1% DMSO
This experiment was performed using Cisbio's homogeneous time-resolved fluorescence conjugate energy transfer (HTRF® method) for activity detection. In the detection plate, enzyme, biotin-labeled peptide substrate, ATP and detection compound were mixed and incubated for reaction. […] The data were represented by fluorescence signal readings at 665 nm and 620 nm respectively, with a high ratio of 665 nm/620 nm indicating high activity and a low ratio of 665 nm/620 nm indicating inhibition of activity. […]
In a 10 μL reaction system with a buffer of 20 mM Hepes (pH 7.5), 10 mM MgCl2, 1 mM EGTA, 0.01% Brij35, 0.1 mM sodium vanadate, 0.02 g/mL BSA, 2 mM DTT, 1% DMSO medium, containing 15 nM TrkA kinase, 0.3 μM biotin-TK peptide (biotin-labeled tyrosine kinase substrate polypeptide), 100 μM ATP were incubated at 23° C. for 120 minutes. […]

[4] = dog, plasma, 2 mg/kg, male Beagle dogs, 2 mpk intravenous injection
[5] = dog, plasma, 15 mg/kg, male Beagle dogs, 15 mpk oral
[6] = Sprague Dawley, rat, plasma, 2 mg/kg, male rats, 2 mpk intravenous injection
[7] = Sprague Dawley, rat, plasma, 300 mg/kg, male rats, 300 mpk oral

COCCN1C[C@@H](n2ccc(F)c2)[C@H](NC(=O)Nc2c(C)c(-c3cnc(C4(F)COC4)nc3)nn2-c2ccccc2)C1 [Compounds of formula (1)]
pharmacokinetic properties and oral bioavailability (in words) ([1]; beagle dogs): good pharmacokinetic properties and oral bioavailability
AUC(0-inf) [1, 4]: 1840 ng·h/mL
C0 [1, 4]: 3940 ng/mL
clearance [1, 4]: 18.4 mL/min/kg
half-life [1, 4]: 0.72 h
Vd ([1]; dog, plasma, 2 mg/kg, male Beagle dogs, 2 mpk intravenous injection, read-out: Vdss): 0.71 L/kg
AUC(0-inf) [1, 5]: 12600 ng·h/mL
Cmax [1, 5]: 4560 ng/mL
Tmax [1, 5]: 1 h
bioavailability [1, 5]: 91.3%
half-life [1, 5]: 1.2 h
IC50 (CYP1A2): > 0.05 µM
AUC(0-inf) [2, 6]: 1970 ng·h/mL
C0 [2, 6]: 3620 ng/mL
clearance [2, 6]: 17.1 mL/min/kg
half-life [2, 6]: 0.61 h
Vd ([2]; Sprague Dawley, rat, plasma, 2 mg/kg, male rats, 2 mpk intravenous injection, read-out: Vdss): 0.7 L/kg
AUC(0-inf) [2, 7]: 210000 ng·h/mL
Cmax [2, 7]: 47600 ng/mL
Tmax [2, 7]: 1.5 h
bioavailability [2, 7]: 71.1%
half-life [2, 7]: 1.7 h
pharmacokinetic properties and oral bioavailability (in words) ([2]; rats): good pharmacokinetic properties and oral bioavailability
risk of drug-drug interaction (in words) [3]: lower risk of drug-drug interaction
IC50 (CYP2D6): 31.7 µM
IC50 (CYP2C19): > 50 µM
IC50 (CYP2C9): 43.6 µM
IC50 (CYP3A4): > 50 µM
inhibitory effect on TrkA enzyme (in words) (TrkA): significant inhibitory effect
IC50 (TrkA; 15 nM TrkA kinase, 100 μM ATP, 23° C., 120 minutes, read-out: Trk AIC50): 0.00664 µM
